Laboratory results published in ChEMBL document CHEMBL1158948, “[Isolation and synthesis of espintanol, a new antiparasitic monoterpene]” (J Nat Prod, 1991).
Values after ≈ are worked out from the molar mass of the structure shown.

Assays:
Trypanosoma cruzi [1] = experiment: Antitrypanosomal activity against Trypanosoma cruzi C8CL1 after 48 hrs; assay type: functional
Trypanosoma cruzi [2] = experiment: Antitrypanosomal activity against Trypanosoma cruzi Tulahuen after 48 hrs; assay type: functional
Leishmania amazonensis [3] = experiment: Antileishmanial activity against Leishmania mexicana amazonensis after 48 hrs; assay type: functional
Leishmania braziliensis [4] = experiment: Antileishmanial activity against Leishmania (Viannia) braziliensis after 48 hrs; assay type: functional
Leishmania chagasi [5] = experiment: Antileishmanial activity against Leishmania donovani chagasi after 48 hrs; assay type: functional
Trypanosoma cruzi [6] = experiment: Antitrypanosomal activity against Trypanosoma cruzi 27R27CL1 after 48 hrs; assay type: functional
Trypanosoma cruzi [7] = experiment: Antitrypanosomal activity against Trypanosoma cruzi 13379 CL8 after 48 hrs; assay type: functional
[8] = system: Leishmania donovani donovani; experiment: Antileishmanial activity against Leishmania donovani donovani HS 70 after 48 hrs; assay type: functional
Leishmania pifanoi = experiment: Antileishmanial activity against Leishmania pifanoi LL1 after 48 hrs; assay type: functional
Trypanosoma cruzi [9] = experiment: Antitrypanosomal activity against Trypanosoma cruzi C8 CL1 after 48 hrs; assay type: functional
Trypanosoma cruzi [10] = experiment: Antitrypanosomal activity against Trypanosoma cruzi CL after 48 hrs; assay type: functional
Trypanosoma cruzi [11] = experiment: Antitrypanosomal activity against Trypanosoma cruzi 31R16CL1 after 48 hrs; assay type: functional
Leishmania chagasi [12] = experiment: Antileishmanial activity against Leishmania donovani chagasi LEM 379 after 48 hrs; assay type: functional
Trypanosoma cruzi [13] = experiment: Antitrypanosomal activity against Trypanosoma cruzi A98CL5 after 48 hrs; assay type: functional
Trypanosoma cruzi [14] = experiment: Antitrypanosomal activity against Trypanosoma cruzi Z2CL4 after 48 hrs; assay type: functional
Trypanosoma cruzi [15] = experiment: Antitrypanosomal activity against Trypanosoma cruzi TeCL2 after 48 hrs; assay type: functional
Leishmania braziliensis [16] = experiment: Antileishmanial activity against Leishmania (Viannia) braziliensis 2904 after 48 hrs; assay type: functional
Trypanosoma cruzi [17] = experiment: Antitrypanosomal activity against Trypanosoma cruzi 13379 CL5 after 48 hrs; assay type: functional
Trypanosoma cruzi [18] = experiment: Antitrypanosomal activity against Trypanosoma cruzi MIL4CL10 after 48 hrs; assay type: functional
Leishmania amazonensis [19] = experiment: Antileishmanial activity against Leishmania mexicana amazonensis PH8 after 48 hrs; assay type: functional
Trypanosoma cruzi [20] = experiment: Antitrypanosomal activity against Trypanosoma cruzi M6241CL6 after 48 hrs; assay type: functional
Trypanosoma cruzi [21] = experiment: Antitrypanosomal activity against Trypanosoma cruzi Y after 48 hrs; assay type: functional
Mus musculus = experiment: Toxicity in BALB/c mouse at 800 mg/kg, ip after 72 hrs; assay type: organism-based; parameters: dose 800 mg/kg, route intraperitoneal; conditions: in vivo
Trypanosoma cruzi [22] = experiment: Antitrypanosomal activity against Trypanosoma cruzi A99CL7 after 48 hrs; assay type: functional
Leishmania guyanensis = experiment: Antileishmanial activity against Leishmania (Viannia) guyanensis M4147 after 48 hrs; assay type: functional
Leishmania peruviana = experiment: Antileishmanial activity against Leishmania (Viannia) peruviana PERU after 48 hrs; assay type: functional
[23] = system: Leishmania mexicana venezuelensis; experiment: Antileishmanial activity against Leishmania mexicana venezuelensis PM H3 after 48 hrs; assay type: functional
Trypanosoma cruzi [24] = experiment: Antitrypanosomal activity against Trypanosoma cruzi 13379 CL3 after 48 hrs; assay type: functional
[25] = system: Leishmania mexicana mexicana; experiment: Antileishmanial activity against Leishmania mexicana mexicana BEL21 after 48 hrs; assay type: functional
Trypanosoma cruzi [26] = experiment: Antitrypanosomal activity against Trypanosoma cruzi 13379 CL6 after 48 hrs; assay type: functional
Leishmania infantum = experiment: Antileishmanial activity against Leishmania donovani infantum LEM 209 after 48 hrs; assay type: functional, LEM209
Trypanosoma cruzi [27] = experiment: Antitrypanosomal activity against Trypanosoma cruzi Z1 after 48 hrs; assay type: functional
Leishmania aristidesi = experiment: Antileishmanial activity against Leishmania mexicana […] 6331 after 48 hrs; assay type: functional
Trypanosoma cruzi [28] = experiment: Antitrypanosomal activity against Trypanosoma cruzi Z2 after 48 hrs; assay type: functional
Trypanosoma cruzi [29] = experiment: Antitrypanosomal activity against Trypanosoma cruzi R107 after 48 hrs; assay type: functional
Trypanosoma cruzi [30] = experiment: Antitrypanosomal activity against Trypanosoma cruzi 9280CL1 after 48 hrs; assay type: functional
Leishmania garnhami = experiment: Antileishmanial activity against Leishmania mexicana garnhami JAP78 after 48 hrs; assay type: functional

Row | Compound | IC90 (Trypanosoma cruzi [1]) [µg/mL] | IC90 (Trypanosoma cruzi [2]) [µg/mL] | IC90 (Leishmania amazonensis [3]) [µg/mL] | IC90 (Leishmania braziliensis [4]) [µg/mL] | IC90 (Leishmania chagasi [5]) [µg/mL] | IC90 (Trypanosoma cruzi [6]) [µg/mL] | IC90 (Trypanosoma cruzi [7]) [µg/mL] | IC90 [8] [µg/mL] | IC90 (Trypanosoma cruzi [9]) [µg/mL] | IC90 (Trypanosoma cruzi [10]) [µg/mL] | IC90 (Trypanosoma cruzi [11]) [µg/mL] | IC90 (Leishmania chagasi [12]) [µg/mL] | IC90 (Trypanosoma cruzi [13]) [µg/mL] | IC90 (Trypanosoma cruzi [14]) [µg/mL] | IC90 (Trypanosoma cruzi [15]) [µg/mL] | IC90 (Trypanosoma cruzi [17]) [µg/mL] | IC90 (Trypanosoma cruzi [18]) [µg/mL] | IC90 (Trypanosoma cruzi [20]) [µg/mL] | IC90 (Trypanosoma cruzi [21]) [µg/mL] | IC90 (Trypanosoma cruzi [22]) [µg/mL] | further results
1 | O=C(Cn1ccnc1[N+](=O)[O-])NCc1ccccc1 [BENZNIDAZOLE] | – | 50 (≈ 192 µM) | – | – | – | 100 (≈ 384 µM) | > 100 | – | 100 (≈ 384 µM) | 100 (≈ 384 µM) | 100 (≈ 384 µM) | – | 100 (≈ 384 µM) | 100 (≈ 384 µM) | 25 (≈ 96.1 µM) | 100 (≈ 384 µM) | 25 (≈ 96.1 µM) | > 100 | 25 (≈ 96.1 µM) | 100 (≈ 384 µM) | IC90 (Trypanosoma cruzi [24]): > 100 µg/mL; IC90 (Trypanosoma cruzi [26]): > 100 µg/mL; IC90 (Trypanosoma cruzi [27]): 100 µg/mL (≈ 384 µM); IC90 (Trypanosoma cruzi [28]): 100 µg/mL (≈ 384 µM); IC90 (Trypanosoma cruzi [29]): 50 µg/mL (≈ 192 µM); IC90 (Trypanosoma cruzi [30]): 50 µg/mL (≈ 192 µM)
2 | CC1CS(=O)(=O)CCN1/N=C/c1ccc([N+](=O)[O-])o1 (configuration not stated) [NIFURTIMOX] | – | 25 (≈ 87 µM) | – | – | – | 100 (≈ 348 µM) | 50 (≈ 174 µM) | – | 25 (≈ 87 µM) | 100 (≈ 348 µM) | 100 (≈ 348 µM) | – | 100 (≈ 348 µM) | 50 (≈ 174 µM) | 25 (≈ 87 µM) | 100 (≈ 348 µM) | 50 (≈ 174 µM) | 50 (≈ 174 µM) | 25 (≈ 87 µM) | 25 (≈ 87 µM) | IC90 (Trypanosoma cruzi [24]): > 100 µg/mL; IC90 (Trypanosoma cruzi [26]): > 100 µg/mL; IC90 (Trypanosoma cruzi [27]): 50 µg/mL (≈ 174 µM); IC90 (Trypanosoma cruzi [28]): 25 µg/mL (≈ 87 µM); IC90 (Trypanosoma cruzi [29]): 25 µg/mL (≈ 87 µM); IC90 (Trypanosoma cruzi [30]): 50 µg/mL (≈ 174 µM)
3 | N=C(N)c1ccc(OCCCCCOc2ccc(C(=N)N)cc2)cc1 [PENTAMIDINE] | – | – | – | – | – | – | – | 1 (≈ 2.94 µM) | – | – | – | 1 (≈ 2.94 µM) | – | – | – | – | – | – | – | – | IC90 (Leishmania pifanoi): 1 µg/mL (≈ 2.94 µM); IC90 (Leishmania braziliensis [16]): 1 µg/mL (≈ 2.94 µM); IC90 (Leishmania amazonensis [19]): 1 µg/mL (≈ 2.94 µM); IC90 (Leishmania guyanensis): 5 µg/mL (≈ 14.7 µM); IC90 (Leishmania peruviana): 5 µg/mL (≈ 14.7 µM); IC90 [23]: 5 µg/mL (≈ 14.7 µM); IC90 [25]: 1 µg/mL (≈ 2.94 µM); IC90 (Leishmania infantum): 1 µg/mL (≈ 2.94 µM); IC90 (Leishmania aristidesi): 1 µg/mL (≈ 2.94 µM); IC90 (Leishmania garnhami): 1 µg/mL (≈ 2.94 µM)
4 | MEGLUMINE ANTIMONATE | – | – | – | – | – | – | – | > 100 | – | – | – | > 100 | – | – | – | – | – | – | – | – | IC90 [23]: > 100 µg/mL; IC90 [25]: > 100 µg/mL; IC90 (Leishmania aristidesi): > 100 µg/mL

More lines, main results first:

Row | IC90 (Trypanosoma cruzi [1]) [µg/mL] | IC90 (Trypanosoma cruzi [2]) [µg/mL] | IC90 (Leishmania amazonensis [3]) [µg/mL] | IC90 (Leishmania braziliensis [4]) [µg/mL] | IC90 (Leishmania chagasi [5]) [µg/mL] | IC90 (Trypanosoma cruzi [6]) [µg/mL] | IC90 (Trypanosoma cruzi [7]) [µg/mL] | IC90 [8] [µg/mL] | IC90 (Trypanosoma cruzi [9]) [µg/mL] | IC90 (Trypanosoma cruzi [10]) [µg/mL] | IC90 (Trypanosoma cruzi [11]) [µg/mL] | IC90 (Leishmania chagasi [12]) [µg/mL] | IC90 (Trypanosoma cruzi [13]) [µg/mL] | IC90 (Trypanosoma cruzi [14]) [µg/mL] | IC90 (Trypanosoma cruzi [15]) [µg/mL] | IC90 (Trypanosoma cruzi [17]) [µg/mL] | IC90 (Trypanosoma cruzi [18]) [µg/mL] | IC90 (Trypanosoma cruzi [20]) [µg/mL] | IC90 (Trypanosoma cruzi [21]) [µg/mL] | IC90 (Trypanosoma cruzi [22]) [µg/mL] | Compound | further results
5 | > 100 | > 100 | > 100 | > 100 | > 100 | > 100 | – | – | – | – | – | – | – | – | – | – | – | – | – | – | COc1cc(C(C)C)c(OC)cc1C [THYMOQUINOL DIMETHYLETHER] | –
6 | 25 (≈ 119 µM) | 25 (≈ 119 µM) | 25 (≈ 119 µM) | 10 (≈ 47.6 µM) | 10 (≈ 47.6 µM) | 25 (≈ 119 µM) | 50 (≈ 238 µM) | 50 (≈ 238 µM) | 25 (≈ 119 µM) | > 100 | 50 (≈ 238 µM) | 25 (≈ 119 µM) | > 100 | 100 (≈ 476 µM) | 25 (≈ 119 µM) | 50 (≈ 238 µM) | 25 (≈ 119 µM) | > 100 | 50 (≈ 238 µM) | 25 (≈ 119 µM) | COc1cc(C)c(O)c(OC)c1C(C)C [ESPINTANOL] | IC90 (Leishmania pifanoi): 25 µg/mL (≈ 119 µM); IC90 (Leishmania braziliensis [16]): 10 µg/mL (≈ 47.6 µM); IC90 (Leishmania amazonensis [19]): 25 µg/mL (≈ 119 µM); Activity (Mus musculus): Active; IC90 (Leishmania guyanensis): 25 µg/mL (≈ 119 µM); IC90 (Leishmania peruviana): 25 µg/mL (≈ 119 µM); IC90 [23]: 50 µg/mL (≈ 238 µM); IC90 (Trypanosoma cruzi [24]): 50 µg/mL (≈ 238 µM); IC90 [25]: 25 µg/mL (≈ 119 µM); IC90 (Trypanosoma cruzi [26]): 100 µg/mL (≈ 476 µM); IC90 (Leishmania infantum): 25 µg/mL (≈ 119 µM); IC90 (Trypanosoma cruzi [27]): 50 µg/mL (≈ 238 µM); IC90 (Leishmania aristidesi): 25 µg/mL (≈ 119 µM); IC90 (Trypanosoma cruzi [28]): 50 µg/mL (≈ 238 µM); IC90 (Trypanosoma cruzi [29]): 25 µg/mL (≈ 119 µM); IC90 (Trypanosoma cruzi [30]): 50 µg/mL (≈ 238 µM); IC90 (Leishmania garnhami): 25 µg/mL (≈ 119 µM)
7 | > 100 | > 100 | > 100 | > 100 | > 100 | > 100 | – | – | – | – | – | – | – | – | – | – | – | – | – | – | COc1cc(C)c(OC)c(OC)c1C(C)C | –
8 | > 100 | > 100 | 25 (≈ 152 µM) | 25 (≈ 152 µM) | 25 (≈ 152 µM) | > 100 | – | – | – | – | – | – | – | – | – | – | – | – | – | – | COc1cc(C(C)C)ccc1C | –
